US7141541B1, “Use of peptides” (University Court of the University of Dundee, priority 1999, dated 2006)
Values belong to the molecule of their own block, whether it stands above or below them. Where a SMILES comes first, the peptide text is derived from it. Where no end group is shown, it is not given here. The star is where a group is joined. Biotin = O=C1N[C@H]2[C@H](CS[C@H]2CCCCC(=O)*)N1; Cbz = O=C(OCc1ccccc1)*; CH2F = FC*

Assays:
[1] = test system: MRC5 cells; assay: peptide-induced cell death (apoptosis) in MRC5 cells; assay type: cell-based; settings: for biological effect (apoptosis): MRC5 cells / cultured mammalian cells
Excerpt: FIG. 8 is a table illustrating the induction of apoptosis by eIF4G peptides in MRC5 cells;
FIG. 9 is a summary of the results of inhibition of eIF4G(413-424)-induced apoptosis;

[2] = test system: serum deprived cells; assay: protection from peptide-induced cell death by serum / MAP kinase activation (FIG. 15); assay type: cell-based
Procedure: FIG. 15 illustrates that the acute activation of MAP kinase protects cells from 4E-binding peptide induced cell death; and
In the presence of 10% ECS, cells were resistant to treatment with 20 μm of the peptides. Cells only died if they were serum deprived for 72 hours (more than 85%) within 15 minutes after the peptide had been applied (see FIG. 15). However, if serum deprived cells (72 h) were pre-treated with 10% FCS or with 20 nM PMA (phorbol ester) for 15 minutes before the peptides were added, the cells survived the subsequent peptide treatment (60–70%).
Furthermore, if the serum deprived cells were instead pre-treated with the MAPK inhibitor PD098059 for 1 hour before 10% FCS was added, approximately 80–90% of the cells died.

[3] = test system: MRC5 cells; assay: [35S]methionine incorporation into protein; assay type: cell-based; settings: serum deprived cells, 30 minutes
Procedure: (§1) FIG. 16 illustrates that eIF4E binding peptide cell death is not through eIF4E's known role in mRNA translation. a) 72 h serum-starved MRC5 cells were treated with 100 μg/ml and 10 μg/ml cylcoheximide, 1 μg/ml and 0.1 μg/ml pactamycine or 10 μM Hu4G peptide for 2 h prior to a MTT assay. Cells were pulsed labelled with [^35S]methionine for 30 min after addition of the inhibitors/peptide. The incorporation of [^35S]methionine into protein was determined following hot trichloroacetic acid precipitation. b) 72 h serum-starved MRC5 cells were treated with 100 μg/ml cycloheximide (Chx), 1 μg/ml pactamycine (Pact) or c) MRC5 cells which had been starved of serum for 72 h were pre-incubated with 100 μg/ml cycloheximide or 1 μg/ml pactamycine for 30 min prior to addition of 10 μM Hu4G peptide. Cells were then further incubated for 1.5 h prior to a MTT assay. Results from three independent experiments (+/− SEM).
Serum deprived cells were treated with the general translation inhibitors Cyclohexamide or Pactamycin at indicated concentrations or the H4G peptide in the presence of 35S-Met for 30 minutes (see FIGS. 16a,b). Cells were lysed and the amount of translation was estimated by counting incorporated 35S-Met in precipitated protein fractions.

[4] = test system: MRC5 cells; assay: cell survival by MTT assay; assay type: cell-based; settings: for cell death / cell viability: various concentrations, 72 h serum-starved MRC5 cells, FIGS. 13b,c,d
Procedure: FIGS. 13a–d are graphs showing cell survival (% of control, untreated cells) as measured by MTT assay. a) Lane 1: 10 μM BP2 peptide added to serum-fed cells or Lane 2, 3, 4: 10 μM BP2 peptide added to 24 h, 48 h or 72 h serum-starved cells respectively. Lane 5: 10 μM BP2 YLL-AAA added to 72 h serum starved cells. Lane 6: 72 h serum starved cells incubated in 10% serum for 1 h prior to addition to 10 μM BP2 peptide. Lane 7: 72 h serum starved cells incubated with 100 μg/ml cycloheximide followed by a 1 h incubation with 10% serum prior to the addition of 10 μM BP2 peptide. In all cases the cells were then further incubated for 1 h in 0.1 mg/ml MTT. Cells were lysed in DMSO and absorbance was measured at […]. b–d) Varying concentrations of peptides were added to 72 h serum starved MRC5 cells. After 30 min incubation the cells were then further incubated for 1 h in 0.1 mg/ml MTT. Cells were lysed in DMSO and absorbance was measured at 570 nm.

[5] = test system: MRC5 cells; assay: MTT assay with general translation inhibitors (FIG. 16); assay type: cell-based; settings: for protection against the effect of the Hu4G peptide: pre-incubation 30 min prior to 10 μM Hu4G peptide; for cell killing: serum deprived cells
Procedure: as §1

[6] = biological target: recombinant human eIF4E (Homo sapiens, UniProt P06730); assay: in vitro binding (pull-down) assay with eIF4E; settings: for interaction with human eIF4E: FIG. 12b(i), 1 μg recombinant eIF4E, 0.2 mM biotinylated peptide, 1 h at 4° C.
Chain of recombinant human eIF4E (Homo sapiens, UniProt P06730) (P06730 whole entry): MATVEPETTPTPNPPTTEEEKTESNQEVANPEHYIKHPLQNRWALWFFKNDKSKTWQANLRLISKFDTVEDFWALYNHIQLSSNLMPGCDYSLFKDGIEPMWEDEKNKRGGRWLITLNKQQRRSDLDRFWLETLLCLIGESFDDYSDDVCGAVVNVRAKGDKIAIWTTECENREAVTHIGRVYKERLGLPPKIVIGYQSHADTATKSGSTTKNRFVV
Procedure: (§2) Sequences of biotinylated, penetratin-linked peptides. U=Norvaline, a substitution for cysteine. Conserved residues that are important in binding to eIF4E are underlined. b). In vitro binding assay. i) 1 μg recombinant eIF4E was incubated with 0.2 mM biotinylated peptides in a total volume of 50 μl wash buffer (1×PBS/250 mM Kcl) for 1 h at 4° C. ii) 0.2 mM Hu4G or Hu4G YLL-AAA was incubated with 200 μg MRC5 cell lysate for 1 h at 4° C. in a total volume of 50 μl wash buffer. In all cases the biotinylated peptides and associated proteins were pulled down using streptavidin agarose. The proteins were separated by SDS PAGE and subjected to Western blotting using anti-eIF4E antibody. Detection was by ECL;
In order to study directly the role of eIF4E in cell transformation, a series of biotinylated synthetic peptides (Peptides synthesised by Cyclacel) corresponding to the eIF4E interacting domain (binding motif) of human eIF4G, and wheat eIF4G and alanine substituted peptides thereof were synthesised (see FIG. 12a) and tested for their capacity to interact with ^35S-Met labelled in vitro translated human eIF4E (NB. Peptides BP1 and BP1 YLM-AAA were not biotinylated). Peptides were coupled to streptavidin coated agarose beads by a N-terminus linked biotin group and washed in PBS/0.2% Tween 3× before being incubated for 1 hour at +4° C. with in vitro translated human eIF4E. Beads were washed as above and boiled for 5 min. in SDS loading buffer before the peptide bound proteins were separated on a 10% SDS gel. The bands were visualised by autoradiography.

[7] = test system: MRC5 cells; assay: TUNEL analysis; assay type: cell-based; settings: 10 μM peptide
Procedure: (§3) MRC5 cells were incubated with 10 μM Hu4G peptide for 10 min. Cells visualised with fluorescein by fluorescence microscopy. […] 80% of cells incubated with the 10 μM Hu4G peptide fluoresced positive. d) Images of DAPI-stained MRC5 cells incubated with either 20 μM Hu4G or Hu4G YLL-AAA peptide for 40 min. Arrows indicate the position of a cell with either a condensed nucleus (top right) or a nucleus with a punctate appearance (bottom left). e) Visualisation of effects on the MPT. Serum-starved MRC5 cells were loaded with 0.1 μM JCl for 30 min prior to addition of 10 μM peptide. Changes in mitochondrial permeability were viewed by laser scanning confocal microscopy (krypton/argon laser) using identical setting. Green channel: excitation 488 nm/emission 522 nm. Red channel: excitation 568 nm/emission 585 nm. Channels were collected separately to avoid cross over. Images were taken 5 min after addition of the peptide;

[8] = test system: HaCaT, Swiss 3T3, RATI and IIeLa cells; assay: cell survival in other cell-types; assay type: cell-based; settings: results not shown
[9] = biological target: T1, eIF4E in MRC5 cell lysate (Homo sapiens, UniProt P06730); assay: pull-down of eIF4E from MRC5 cell lysate; assay type: binding; settings: 0.2 mM peptide, 200 μg MRC5 cell lysate, 1 h at 4° C.
T1 construct: endogenous in cells; host or cells: MRC5
T1 sequence (P06730 whole entry): as above
Procedure: as §2

[10] = test system: MRC5 cells; assay: mitochondrial permeability transition (JC1 dye, confocal microscopy); assay type: cell-based; settings: 10 μM peptide, serum-starved MRC5 cells
Procedure: as §3
An early event considered decisive in apoptosis is the opening of the mitochondrial permeability transition (MPT) pore (20–22). To characterise further the eIF4E-binding peptide-induced cell death, the development of the MPT was investigated in living MRC5 cells loaded with the fluorescent dye, JC1 (21).

[11] = test system: cap-independent translation initiation; assay: in vitro translation assay, cap-independent; assay type: biochemical
[12] = test system: cap-dependent translation initiation; assay: in vitro translation assay, cap-dependent; assay type: biochemical
[13] = biological target: T2, recombinant human eIF4E (human, UniProt P06730 1-217, limits assumed); assay: in vitro pull-down of recombinant human eIF4E (FIG. 5)
T2 construct: also called in vitro translated human eIF4E; eukaryotic initiation factor 4E
T2 sequence (P06730 whole entry): as above

[14] = biological target: T2, recombinant human eIF4E; assay: streptavidin agarose pull-down with biotinylated peptide
Procedure: as §2, with “FIG. 12 illustrates that eIF4E-binding peptides leads to rapid, dose-dependent, cell death. a). Sequences” for “Sequences”, “µg” for “μg”, “µl” for “μl”

Molecule: COc1cccc(-c2cc(=O)c3ccccc3o2)c1N [PD098059, reference compound]
effect on serum induced resistance to the peptides ([1]; pre-treatment with the MEK inhibitor): serum induced resistance could be inhibited
cells died ([2]; serum deprived cells pre-treated for 1 hour before 10% FCS was added): 80–90%

Molecule: CCCCCCCCCCCCCC(=O)O[C@@H]1[C@@H](C)[C@@]2(O)[C@@H](C=C(CO)C[C@]3(O)C(=O)C(C)=C[C@@H]23)[C@@H]2C(C)(C)[C@]12OC(C)=O [PMA]
cells survived the subsequent peptide treatment ([2]; serum deprived cells (72 h) pre-treated with 20 nM for 15 minutes): 60–70%

Molecule: COC(=O)C[C@H](NC(=O)[C@H](C)NC(=O)[C@@H](NC(=O)OCc1ccccc1)C(C)C)C(=O)CF [ZVAD.fmk, reference compound] (Cbz-Val-Ala-Asp(OMe)-CH2F)
effect of pre-treatment on peptide-induced cell death ([1]; MRC5 cells, results not shown): did not affect peptide-induced cell death

Molecule: C[C@@H]1C[C@@H]([C@H](O)CC2CC(=O)NC(=O)C2)C(=O)[C@@H](C)C1 [cycloheximide]
incorporation of 35S-Met (translation) [3]: block translation
effect on protective effect of serum ([4]; pre-incubation with 100 μg/ml, then 10% serum 1 h, then 10 μM BP2 peptide): could not be inhibited
protection against the effect of the Hu4G peptide [5]: did not result in any protection
cell killing [5]: do not kill the cells

Molecule: CC(=O)c1cccc(N[C@H]2[C@H](N)[C@@](NC(=O)N(C)C)([C@H](C)O)[C@@](C)(O)[C@@]2(O)COC(=O)c2c(C)cccc2O)c1 [pactamycin]
incorporation of 35S-Met (translation) [3]: block translation
protection against the effect of the Hu4G peptide [5]: did not result in any protection
cell killing [5]: do not kill the cells

interaction with human eIF4E [6]: lower binding affinity
Molecule: Hu4G Y-A: singly alanine-substituted, penetratin-linked human eIF4G peptide (KKRADREFLLGFRQIKIWFQNRRMKWKK)
biological effect (apoptosis) ([1]; FIG. 8): intermediate biological effect
cell death / cell viability [4]: reduced capacity to induce cell death

binding of eIF4E in cell lysates [9]: did not
interaction with human eIF4E [6]: did not interact with eIF4E
Molecule: Hu4G YLL-AAA: triple alanine substituted, penetratin-linked human eIF4G peptide, unable to bind eIF4E (KKRADREFAAGFRQIKIWFQNRRMKWKK)
biological effect (apoptosis) ([1]; FIG. 8): did not cause the observed biological effect (apoptosis)
TUNEL signal [7]: No signal was observed
cell survival [8]: no effect on cell survival
changes in JC1 fluorescence (MPT pore opening) [10]: No changes in florescence were observed

Molecule: RVRYSRDQLLDL (listed as Triticum aestivum) [wheat eIF4G(62-73)]
binding to recombinant human eIF4E in vitro ([6]; FIG. 4, FIG. 5): bound to and pulled down more recombinant human eIF4F in vitro than human eIF4G(569-580) did
inhibition of cap-independent translation initiation in vitro [11]: not cap-independent translation initiation
inhibition of cap-dependent translation initiation in vitro [12]: found to inhibit cap-dependent translation initiation

Molecule: W4G: biotinylated, penetratin-linked peptide of the eIF4E binding motif of wheat eIF4G (Biotin-RVRYSRDQLLDLRQIKIWFQNRRMKWKK)
effect of limited serum treatment on sensitivity to the peptide ([1]; FIG. 9): Resistance
cell death (possibly by apoptosis) ([1]; serum starved cell lines, FIG. 8): caused rapid cell death
cell death / cell viability [4]: rapid, dose-dependent, cell death

binding result [13]: binds
Molecule: KKRYDREFLLGF (also called human eIF4G413-424) [human eIF4G(569-580)]

binding result [13]: binds
Molecule: RVRYSRDQLLDL [wheat eIF4G(62-73)]

B1: Human eIF4G(569-580)Y416AL421AL422A-Penetratin (peptide)
peptide: KKRADREFAAGFRQIKIWFQNRRMKWKK
modifications: not fully specified (N-terminus)
notes: Order of pieces from the printed name; also called Hu4G YLL-AAA; triple alanine human eIF4G peptide
binding result [14]: no binding (tested: 0.2 mM peptide (FIG. 12b legend))
